Measured values taken from PMC11466185, “Mechanisms and efficacy of small molecule latency-promoting agents to inhibit HIV reactivation ex vivo” (JCI Insight, 2024).

Columns and labels:
[1] = system: HIV transcripts (TAR, LLTR, Pol, PolyA, TatRev); assay: Latency reversal assay: cell-associated HIV transcripts (RT-ddPCR) 24 hours after anti-CD3/CD28 activation of PBMCs from ART-suppressed PWH; format: cell-based; conditions: 24 hours; compared with activated DMSO; Figure 3C
Description: We selected 26 small molecules targeting pathways implicated in HIV transcription or the blocks to HIV transcription underlying latency (Supplemental Table 1). […] Initial screening of all drugs was performed in freshly isolated PBMCs from 2 ART-suppressed individuals (Figure 1 and Supplemental Figure 2). PBMCs were cultured in the presence of individual drugs in DMSO or DMSO alone as a control, subsequently activated (anti-CD3/CD28), and harvested after 24 hours. […] The progression through different blocks to HIV transcription was quantified by measuring the levels of initiated (TAR), 5′ elongated (LLTR), midtranscribed/unspliced (Pol), completed (PolyA), and multiply spliced (TatRev) HIV transcripts. The levels of those HIV transcripts were normalized to 1 μg of total cellular RNA (to normalize for the effect of the drug on global cellular transcription) and expressed as a percentage of the activated DMSO control.
Figure 1 Screening of candidate LPAs by measuring the change in multiply spliced HIV transcripts after activation. Each drug was tested in PBMCs from 2 ART-suppressed study participants (denoted in the legend by varying symbol shapes). PBMCs were aliquoted into wells at 6 × 10^6 cells/well. After activation, the cells were cultured with antiretrovirals in the presence of individual drugs in DMSO or DMSO alone as control. All conditions were tested in the presence of CD3/28 T cell–activating beads, except for the unactivated DMSO condition. (A) After 24 hours, the viability was measured by trypan blue staining and then normalized to the levels of the activated DMSO (% of activated DMSO). Bars indicate medians. (B) Total cellular RNA was extracted, and the levels of multiply spliced HIV transcripts (TatRev) were measured by RT-ddPCR, normalized to 1 μg of total cellular RNA, and expressed as a percentage of the activated DMSO control (% of activated DMSO). RT-dd, reverse transcription digital droplet; vRNA, viral RNA; HAT, histone acetyltransferase.
The ability of our candidate LPAs to inhibit HIV transcriptional progression after activation was examined in PBMCs from a minimum of 7 PWH per drug tested (Figure 3). PBMCs were cultured in the presence of individual drugs in DMSO or in DMSO alone as a control, subsequently activated (anti-CD3/CD28), and harvested after 24 hours.
Each drug was tested in PBMCs from 7 ART-suppressed study participants. The PBMCs were aliquoted into wells at 6 × 10^6 cells/well. After activation, the cells were cultured with antiretrovirals in the presence of individual drugs in DMSO or DMSO alone as control. All conditions were tested in the presence of CD3/28 T cell–activating beads, except for the unactivated DMSO condition. After 24 hours, total RNA was extracted, and the progression through different stages of HIV transcription was quantified by measuring the levels of initiated (TAR), 5′ elongated (LLTR), midtranscribed/unspliced (Pol), completed (PolyA), and multiply spliced (TatRev) HIV transcripts. (A) The levels of all HIV transcripts were normalized to 1 μg of total cellular RNA and expressed as a percentage of the activated DMSO control (% of activated DMSO). Medians are shown as well as the individual values per study participant in different colors. (B–D) The effect of each drug on HIV transcriptional progression after activation was analyzed by the ratio of one HIV transcript to another. Ratios are independent of HIV infection frequency or normalization to cell numbers. Shown are the proportion of (B) all HIV transcripts that were elongated (LLTR/TAR), (C) elongated HIV transcripts that were completed spliced (PolyA/LLTR), and (D) completed transcripts that were multiply spliced (TatRev/PolyA).

PBMCs = assay: Total number of live cells (proliferation) by trypan blue staining at day 6; format: cell-based, human; conditions: day 6; Figure 6A
Description: Some of our candidate LPAs can block the effects of T cell activation, which could affect T cell proliferation. Therefore, we evaluated the extent to which variations in the level of infected cells may contribute to reductions in different HIV RNA transcripts. We measured the total number of viable cells (as a measure of proliferation) and the conserved U3-U5 LTR HIV DNA region (as a measure of total infection frequency) at day 6.
(A) After 6 days, the total number of live cells was measured by trypan blue staining and then normalized to the levels of the activated DMSO (% of activated DMSO). All conditions were tested in the presence of CD3^+/CD28^+ T cell–activating beads, except for the unactivated DMSO condition. Bars indicate medians, and different colors indicate individual study participants. Comparisons were performed using Wilcoxon’s signed-rank test. (B) Total cellular DNA was extracted, and the levels of U3-U5 HIV DNA were measured to quantify infection frequency at 6 days. HIV DNA levels were normalized to copies per 10^6 cells using the input of cellular DNA (assuming 1 μg of total DNA corresponds to 160,000 cells) and then normalized to the activated DMSO control (% of activated DMSO). Bars indicate medians, and different colors indicate individual study participants.

## CC(=O)N[C@@H]1CCC[C@H](C(=O)Nc2cc(-c3cnn4c3CC(C)(C)C4)c(Cl)cn2)C1 [AZD4573]
[1]
  HIV transcriptional completion, ratio PolyA/LLTR: reduced

## O=c1c(O)c(-c2ccc(O)c(O)c2)oc2cc(O)cc(O)c12 [quercetin]
PBMCs
  Total live cell numbers (proliferation) compared with activated DMSO (in words): did not change proliferation rates

## COc1ccc(-c2cc(=O)c3c(O)cc(O)c(-c4cc(-c5cc(=O)c6c(O)cc(O)cc6o5)ccc4OC)c3o2)cc1 [isoginkgetin]
PBMCs
  Total live cell numbers (proliferation) compared with activated DMSO (in words): significantly lower
